Test results taken from patent publication US4356322A, “Phenoxyalkanolamine derivatives” (Veb Arzneimittelwerk Dresden, priority 1977, dated 1982).
Structures can show the parent of a compound that is named as a salt. Where two headings read alike, the source gives them in different places.

Key:
circulation of dogs = assay: effects on the circulation of dogs under continual intravenous infusion; assay type: in vivo, dog; settings: for ED30: Canis lupus familiaris, iv; for effective period / heart's oxygen demand / peripheral cardiovascular system: in vivo; for contractility, cardiac frequency and cardiac output: increases occur at approximately parallel rates
Text: Column 1: Infusion rate in μg/kg/min
Column 2: Cumulative dose in μg/kg
Rate of pressure increase in the left ventricle (dp/dt/max) in mm Hg·s^-1
ED30 =dosage for 30% increase in inotropy, in μg/kg
Max=maximum increase in percent in inotropy at dose μg/kg
Column 4: Cardiac frequency in n·min^-1
ED30 =dosage for 30% increase in frequency, in μg/kg
Max=maximum increase in percent in frequency at dose μg/kg
Column 5: Cardiac output ml·min^-1 ·kg^-1
Column 6: Diastolic blood pressure in mm Hg
Column 7: Number of animals used in the experiments
X=median values (initial value and after cumulative dose)
%=change in percent of initial value
In these experiments, the compounds were used in the form of hydrochlorides.

cat = assay: β-mimetic effect on contractility and cardiac frequency in anesthetized cat; assay type: in vivo; settings: HCl salt
in vivo = settings: rat, iv
β-receptor = settings: M. J. Davey, Arch. Pharmacol. 179 (1973); cited from earlier work
rats = settings: rat, intravenous, acute; HCl salt
[1] = dog, i.v. infusion, read-out: ED30, dosage for 30% increase in frequency
[2] = dog, i.v. infusion, read-out: ED30, dosage for 30% increase in inotropy
[3] = dog, 12,5 μg/kg/min, cumulative dose --
[4] = dog, at 50 μg/kg, i.v. infusion
[5] = dog, 1,00 μg/kg/min, cumulative 30,0 μg/kg
[6] = dog, 0,25 μg/kg/min, cumulative 15,0 μg/kg
[7] = dog, at 15 μg/kg, i.v. infusion
[8] = dog, 1,00 μg/kg/min, cumulative 10,0 μg/kg
[9] = dog, at 30 μg/kg, i.v. infusion
[10] = dog, 1,00 μg/kg/min, cumulative 20,0 μg/kg
[11] = dog, 0,125 μg/kg/min, cumulative dose --
[12] = dog, at 0,1875 (μg/kg), i.v. infusion
[13] = dog, 10,0 μg/kg/min, cumulative 200 μg/kg

SMILES: CC(CCc1ccc(O)cc1)NCCc1ccc(O)c(O)c1 (stereo not drawn) [Dobutamine, reference compound]
- ED30 (circulation of dogs; [1]): 23 µg/kg
- ED30 (circulation of dogs; [2]): 7.5 µg/kg
- frequency and cardiovascular dilation (circulation of dogs; at higher dosages): strong increases in frequency and in cardiovascular dilation
- Cardiac frequency, change in percent of initial value (circulation of dogs; [3]): +8%
- Cardiac frequency, median initial value - value after dose (circulation of dogs; [3]): 78-84 n.min^-1
- Cardiac output, change in percent of initial value (circulation of dogs; [3]): +23%
- Cardiac output, median initial value - value after dose (circulation of dogs; [3]): 152 to 186 mL/min/kg
- Diastolic blood pressure, change in percent of initial value (circulation of dogs; [3]): +3%
- Diastolic blood pressure, median initial value - value after dose (circulation of dogs; [3]): 101-103 mm Hg
- dp/dt max, change in percent of initial value (circulation of dogs; [3]): +75%
- dp/dt max, median initial value - value after dose (circulation of dogs; [3]): 3088-5410 mm Hg.s^-1
- Max, maximum increase in percent in frequency (circulation of dogs; [4]): +56%
- Max, maximum increase in percent in inotropy (circulation of dogs; [4]): +191%
- effective period (circulation of dogs; dog): equal to the rather brief effective period of isoprenaline
- inotropy (circulation of dogs; in words): strong rise in inotropy

SMILES: OC(CNCCNc1ccccc1Cl)COc1ccccc1 (stereo not drawn) [Example 1, 3-[β-(2-chlorophenylamino)-ethyl]-amino-2-hydroxy-1-phenoxypropane]
- HR, percent change from initial value in heart frequency (cat; D 0.01 mg/kg i.v.): +11%
- dp/dt max, percent change from initial value, left ventricle (cat; D 0.01 mg/kg i.v.): +59%
- ED30 (circulation of dogs; [1]): 20 µg/kg
- ED30 (circulation of dogs; [2]): 11 µg/kg
- Cardiac frequency, change in percent of initial value (circulation of dogs; [5]): +34%
- Cardiac frequency, median initial value - value after cumulative dose (circulation of dogs; [5]): 80-107 n.min^-1
- Cardiac output, change in percent of initial value (circulation of dogs; [5]): +69%
- Cardiac output, median initial value - value after cumulative dose (circulation of dogs; [5]): 115 to 195 mL/min/kg
- Diastolic blood pressure, change in percent of initial value (circulation of dogs; [5]): +2%
- Diastolic blood pressure, median initial value - value after cumulative dose (circulation of dogs; [5]): 111-113 mm Hg
- dp/dt max, change in percent of initial value (circulation of dogs; [5]): +76%
- dp/dt max, median initial value - value after cumulative dose (circulation of dogs; [5]): 3028-5326 mm Hg.s^-1
- Max, maximum increase in percent in inotropy (circulation of dogs; [4]): +91%
- Max, maximum increase in percent in frequency (circulation of dogs; dog, at 60 μg/kg, i.v. infusion): +37%
- LD50 (in vivo): 21000 µg/kg

SMILES: Cc1cccc(C)c1NCCNCC(O)COc1ccccc1 (stereo not drawn) [Example 7, 3-[β-(2,6-dimethylphenylamino)-ethyl]-amino-2-hydroxy-1-phenoxypropane hydrochloride]
- HR, percent change from initial value in heart frequency (cat; D 0.01 mg/kg i.v.): +14%
- dp/dt max, percent change from initial value, left ventricle (cat; D 0.01 mg/kg i.v.): +104%
- ED30 (circulation of dogs; [1]): 15 µg/kg
- ED30 (circulation of dogs; [2]): 5 µg/kg
- Cardiac frequency, change in percent of initial value (circulation of dogs; [6]): +30%
- Cardiac frequency, median initial value - value after cumulative dose (circulation of dogs; [6]): 72-93 n.min^-1
- Cardiac output, change in percent of initial value (circulation of dogs; [6]): +35%
- Cardiac output, median initial value - value after cumulative dose (circulation of dogs; [6]): 138 to 185 mL/min/kg
- Diastolic blood pressure, change in percent of initial value (circulation of dogs; [6]): -3%
- dp/dt max, change in percent of initial value (circulation of dogs; [6]): +72%
- dp/dt max, median initial value - value after cumulative dose (circulation of dogs; [6]): 3834-6590 mm Hg.s^-1
- Max, maximum increase in percent in frequency (circulation of dogs; [7]): +30%
- Max, maximum increase in percent in inotropy (circulation of dogs; [7]): +72%
- LD50 (in vivo): 32000 µg/kg

SMILES: O=[N+]([O-])c1cccc(NCCNCC(O)COc2ccccc2)c1 (stereo not drawn) [Example 16, 3-[β-(3-nitrophenylamino)-ethyl]-amino-2-hydroxy-1-phenoxypropane]
- HR, percent change from initial value in heart frequency (cat; D 0.01 mg/kg i.v.): +13%
- dp/dt max, percent change from initial value, left ventricle (cat; D 0.01 mg/kg i.v.): +57%
- ED30 (circulation of dogs; [1]): 20 µg/kg
- ED30 (circulation of dogs; [2]): 5 µg/kg
- Cardiac frequency, change in percent of initial value (circulation of dogs; [8]): +13%
- Cardiac frequency, median initial value - value after cumulative dose (circulation of dogs; [8]): 83-94 n.min^-1
- Cardiac output, change in percent of initial value (circulation of dogs; [8]): +32%
- Cardiac output, median initial value - value after cumulative dose (circulation of dogs; [8]): 129 to 169 mL/min/kg
- dp/dt max, change in percent of initial value (circulation of dogs; [8]): +71%
- dp/dt max, median initial value - value after cumulative dose (circulation of dogs; [8]): 3068-5230 mm Hg.s^-1
- Max, maximum increase in percent in frequency (circulation of dogs; [9]): +39%
- Max, maximum increase in percent in inotropy (circulation of dogs; [9]): +100%
- LD50 (in vivo): 44000 µg/kg

SMILES: Nc1cccc(NCCNCC(O)COc2ccccc2)c1 (stereo not drawn) [Example 17, 3-[β-(3-aminophenylamino)-ethyl]-amino-2-hydroxy-1-phenoxypropane trihydrochloride]
- HR, percent change from initial value in heart frequency (cat; D 0.01 mg/kg i.v.): +19%
- dp/dt max, percent change from initial value, left ventricle (cat; D 0.01 mg/kg i.v.): +84%
- ED30 (circulation of dogs; [1]): 16 µg/kg
- ED30 (circulation of dogs; [2]): 5.5 µg/kg
- Cardiac frequency, change in percent of initial value (circulation of dogs; [10]): +33%
- Cardiac frequency, median initial value - value after cumulative dose (circulation of dogs; [10]): 85-113 n.min^-1
- Cardiac output, change in percent of initial value (circulation of dogs; [10]): +44%
- Cardiac output, median initial value - value after cumulative dose (circulation of dogs; [10]): 138 to 198 mL/min/kg
- Diastolic blood pressure, change in percent of initial value (circulation of dogs; [10]): +1%
- Diastolic blood pressure, median initial value - value after cumulative dose (circulation of dogs; [10]): 103-104 mm Hg
- dp/dt max, change in percent of initial value (circulation of dogs; [10]): +84%
- dp/dt max, median initial value - value after cumulative dose (circulation of dogs; [10]): 3071-5663 mm Hg.s^-1
- Max, maximum increase in percent in inotropy (circulation of dogs; dog, at 40 μg/kg, i.v. infusion): +93%
- Max, maximum increase in percent in frequency (circulation of dogs; [4]): +49%
- LD50 (in vivo): 66000 µg/kg

SMILES: CC(C)NCC(O)c1ccc(O)c(O)c1 (stereo not drawn) [Isoprenaline-Sulphate, reference compound]
- ED30 (circulation of dogs; [1]): 0.06 µg/kg
- Cardiac frequency, change in percent of initial value (circulation of dogs; [11]): +51%
- Cardiac frequency, median initial value - value after dose (circulation of dogs; [11]): 76-115 n.min^-1
- Cardiac output, change in percent of initial value (circulation of dogs; [11]): +94%
- Cardiac output, median initial value - value after dose (circulation of dogs; [11]): 130 to 253 mL/min/kg
- Diastolic blood pressure, change in percent of initial value (circulation of dogs; [11]): -3%
- dp/dt max, change in percent of initial value (circulation of dogs; [11]): +64%
- dp/dt max, median initial value - value after dose (circulation of dogs; [11]): 3136-5140 mm Hg.s^-1
- Max, maximum increase in percent in frequency (circulation of dogs; [12]): +75%
- Max, maximum increase in percent in inotropy (circulation of dogs; [12]): +116%
- effective period (circulation of dogs; dog): rather brief
- heart's oxygen demand (circulation of dogs; dog): excessive rise in the heart's oxygen demand
- peripheral cardiovascular system (circulation of dogs; dog): a dilation of the peripheral cardiovascular system
- contractility, cardiac frequency and cardiac output (circulation of dogs): increases in contractility, cardiac frequency and cardiac output

SMILES: CC(C)NCC(O)COc1cccc2ccccc12 (stereo not drawn) [Propranolol, reference compound]
- HR, percent change from initial value in heart frequency (cat; D 0.10 mg/kg i.v.): -8%
- dp/dt max, percent change from initial value, left ventricle (cat; D 0.10 mg/kg i.v.): -8%

SMILES: Cc1ccccc1OCC(O)CNCCOc1ccc(C(N)=O)cc1 (stereo not drawn) [Tolamolol, 1-[2-(4-carbamoylphenoxy)-ethylamino]-3-(2-methylphenoxy)-propan-2-ol, reference compound]
- HR, percent change from initial value in heart frequency (cat; D 0.10 mg/kg i.v.): -10%
- dp/dt max, percent change from initial value, left ventricle (cat; D 0.10 mg/kg i.v.): -17%
- intrinsic sympathicomimetic activity (β-receptor): does not exhibit an "intrinsic sympathicomimetic activity"
- β-blocking efficacy compared with propranolol (β-receptor): about equal to that of propranolol
- β-receptor blocking selectivity (β-receptor): cardioselective β-receptor blocking agent
- LD50 (in vivo): 133000 µg/kg

SMILES: COc1cccc(C(=O)CCN[C@@H](C)[C@H](O)c2ccccc2)c1.Cl [d-l-Oxyphedrine Hydrochloride, reference compound]
- HR, percent change from initial value in heart frequency (cat; D 0.50 mg/kg i.v.): +2%
- dp/dt max, percent change from initial value, left ventricle (cat; D 0.50 mg/kg i.v.): +38%
- Cardiac frequency, change in percent of initial value (circulation of dogs; [13]): +56%
- Cardiac frequency, median initial value - value after cumulative dose (circulation of dogs; [13]): 75-117 n.min^-1
- Cardiac output, change in percent of initial value (circulation of dogs; [13]): +65%
- Cardiac output, median initial value - value after cumulative dose (circulation of dogs; [13]): 112 to 186 mL/min/kg
- Diastolic blood pressure, change in percent of initial value (circulation of dogs; [13]): -13%
- dp/dt max, change in percent of initial value (circulation of dogs; [13]): +50%
- dp/dt max, median initial value - value after cumulative dose (circulation of dogs; [13]): 3072-4600 mm Hg.s^-1
- Max, maximum increase in percent in inotropy (circulation of dogs; dog, at 500 μg/kg, i.v. infusion): +89%
- Max, maximum increase in percent in frequency (circulation of dogs; dog, at 600 μg/kg, i.v. infusion): +104%
- ED30, dosage for 30% increase in frequency (circulation of dogs; dog, i.v. infusion): 130 µg/kg
- ED30, dosage for 30% increase in inotropy (circulation of dogs; dog, i.v. infusion): 130 µg/kg
- heart's oxygen demand (circulation of dogs; dog): excessive rise in the heart's oxygen demand
- peripheral cardiovascular system (circulation of dogs; dog): a dilation of the peripheral cardiovascular system
- contractility, cardiac frequency and cardiac output (circulation of dogs): increases in contractility, cardiac frequency and cardiac output
- LD50 (rats): 26000 µg/kg
